# Earlier results, collected in patent US11535670B2, “Combination therapies of HDAC inhibitors and PD-L1 inhibitors” (HUYABIO International, LLC, priority 2016, dated 2022).
# Columns and labels:
# [1] = oral administration; cited from earlier work
# HDAC 2 = HDAC 2 (Homo sapiens, UniProt Q92769); conditions: cited from earlier work
# HDAC 8 = target: T1, HDAC 8 (Homo sapiens, UniProt Q9BY41); conditions: cited from earlier work
# T1 sequence (Q9BY41 1-377): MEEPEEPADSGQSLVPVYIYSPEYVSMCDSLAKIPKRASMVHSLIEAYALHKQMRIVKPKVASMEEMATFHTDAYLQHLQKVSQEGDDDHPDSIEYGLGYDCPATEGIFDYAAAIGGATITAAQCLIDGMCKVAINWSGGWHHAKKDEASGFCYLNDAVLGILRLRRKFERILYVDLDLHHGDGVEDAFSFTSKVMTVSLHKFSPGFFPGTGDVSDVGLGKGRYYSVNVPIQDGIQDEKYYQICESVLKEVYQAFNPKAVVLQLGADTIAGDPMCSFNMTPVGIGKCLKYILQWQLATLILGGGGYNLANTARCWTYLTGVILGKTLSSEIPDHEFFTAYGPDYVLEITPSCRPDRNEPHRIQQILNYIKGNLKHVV
# HDAC 1 = HDAC 1 (Homo sapiens, UniProt Q13547); conditions: cited from earlier work
# HDAC 10 = target: T2, HDAC 10 (Homo sapiens, UniProt Q969S8); conditions: cited from earlier work
# T2 sequence (Q969S8 1-669): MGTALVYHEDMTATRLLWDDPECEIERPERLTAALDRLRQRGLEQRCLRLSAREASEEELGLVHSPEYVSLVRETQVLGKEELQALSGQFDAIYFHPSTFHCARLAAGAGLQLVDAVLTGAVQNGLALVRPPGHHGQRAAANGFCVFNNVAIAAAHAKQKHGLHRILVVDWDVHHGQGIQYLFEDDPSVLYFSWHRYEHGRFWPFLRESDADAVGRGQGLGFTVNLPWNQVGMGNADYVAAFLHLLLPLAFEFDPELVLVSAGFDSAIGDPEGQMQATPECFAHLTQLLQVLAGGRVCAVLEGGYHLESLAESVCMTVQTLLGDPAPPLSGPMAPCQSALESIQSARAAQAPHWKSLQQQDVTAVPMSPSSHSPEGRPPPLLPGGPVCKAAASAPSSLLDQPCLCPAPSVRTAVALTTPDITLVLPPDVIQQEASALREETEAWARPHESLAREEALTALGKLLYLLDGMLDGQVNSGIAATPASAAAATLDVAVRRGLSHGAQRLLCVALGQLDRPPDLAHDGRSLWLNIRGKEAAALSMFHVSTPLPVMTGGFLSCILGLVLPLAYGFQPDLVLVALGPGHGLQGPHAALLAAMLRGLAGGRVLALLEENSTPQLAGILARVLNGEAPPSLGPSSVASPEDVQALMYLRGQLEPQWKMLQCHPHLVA
# Sequence of HDAC 1 (Q13547 whole entry): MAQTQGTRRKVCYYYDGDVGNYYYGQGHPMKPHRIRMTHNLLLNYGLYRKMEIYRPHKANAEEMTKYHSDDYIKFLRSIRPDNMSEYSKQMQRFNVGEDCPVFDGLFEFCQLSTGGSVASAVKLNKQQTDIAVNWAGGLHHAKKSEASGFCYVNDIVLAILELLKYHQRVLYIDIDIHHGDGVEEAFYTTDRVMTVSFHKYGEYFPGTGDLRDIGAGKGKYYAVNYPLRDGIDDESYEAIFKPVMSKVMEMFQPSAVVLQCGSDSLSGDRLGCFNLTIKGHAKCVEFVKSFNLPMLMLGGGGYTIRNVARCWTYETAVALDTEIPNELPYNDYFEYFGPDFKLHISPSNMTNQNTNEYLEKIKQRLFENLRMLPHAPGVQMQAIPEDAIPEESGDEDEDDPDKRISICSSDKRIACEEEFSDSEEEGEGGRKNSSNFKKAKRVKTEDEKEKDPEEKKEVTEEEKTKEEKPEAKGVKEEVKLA
# Sequence of HDAC 2 (Q92769 whole entry): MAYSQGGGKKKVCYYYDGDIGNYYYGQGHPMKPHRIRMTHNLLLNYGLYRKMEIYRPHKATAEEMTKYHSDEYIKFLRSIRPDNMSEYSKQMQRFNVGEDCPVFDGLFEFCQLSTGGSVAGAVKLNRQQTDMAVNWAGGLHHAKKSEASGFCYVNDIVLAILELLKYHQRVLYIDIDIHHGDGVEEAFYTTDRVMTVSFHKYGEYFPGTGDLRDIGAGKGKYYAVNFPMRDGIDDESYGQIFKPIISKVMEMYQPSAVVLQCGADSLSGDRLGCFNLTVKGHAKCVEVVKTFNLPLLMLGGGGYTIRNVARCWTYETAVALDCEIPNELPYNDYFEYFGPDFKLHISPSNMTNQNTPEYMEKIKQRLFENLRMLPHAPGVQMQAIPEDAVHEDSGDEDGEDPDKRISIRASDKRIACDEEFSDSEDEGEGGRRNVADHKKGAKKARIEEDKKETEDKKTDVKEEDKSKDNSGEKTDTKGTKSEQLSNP
smiles,measurement,setting,value
"Nc1cc(F)ccc1NC(=O)c1ccc(CNC(=O)/C=C/c2cccnc2)cc1 [HBI-8000, N-(2-amino-4-fluorophenyl)-4-[[[(2E)-1-oxo-3-(3-pyridinyl)-2-propen-1-yl]amino]methyl]benzamide]",t1/2,[1],about 17 hours
same,inhibition of HDAC 2,HDAC 2,low nanomolar concentrations
same,activity at HDAC 2 compared with Entinostat,HDAC 2; versus Entinostat,more active than Entinostat
same,activity at HDAC 8,HDAC 8,has activity
same,activity at HDAC 8 compared with Entinostat,HDAC 8; versus Entinostat,more active than Entinostat
same,inhibition of HDAC 1,HDAC 1,low nanomolar concentrations
same,activity at HDAC 1 compared with Entinostat,HDAC 1; versus Entinostat,more active than Entinostat
same,inhibition of HDAC 10,HDAC 10,low nanomolar concentrations
same,activity at HDAC 10 compared with Entinostat,HDAC 10; versus Entinostat,more active than Entinostat
